Source: US11325889B2, “Substituted 3-((3-aminophenyl)amino)piperidine-2,6-dione compounds, compositions thereof, and methods of treatment therewith” (Celgene Corporation, priority 2018, dated 2022)
Read-outs that look alike come from different tables or passages of the source.

Target: T1, AR protein in VCaP cells (Homo sapiens, UniProt P10275)
T1 construct: endogenous in cells; host or cells: VCaP cells
T1 sequence (P10275 1-920): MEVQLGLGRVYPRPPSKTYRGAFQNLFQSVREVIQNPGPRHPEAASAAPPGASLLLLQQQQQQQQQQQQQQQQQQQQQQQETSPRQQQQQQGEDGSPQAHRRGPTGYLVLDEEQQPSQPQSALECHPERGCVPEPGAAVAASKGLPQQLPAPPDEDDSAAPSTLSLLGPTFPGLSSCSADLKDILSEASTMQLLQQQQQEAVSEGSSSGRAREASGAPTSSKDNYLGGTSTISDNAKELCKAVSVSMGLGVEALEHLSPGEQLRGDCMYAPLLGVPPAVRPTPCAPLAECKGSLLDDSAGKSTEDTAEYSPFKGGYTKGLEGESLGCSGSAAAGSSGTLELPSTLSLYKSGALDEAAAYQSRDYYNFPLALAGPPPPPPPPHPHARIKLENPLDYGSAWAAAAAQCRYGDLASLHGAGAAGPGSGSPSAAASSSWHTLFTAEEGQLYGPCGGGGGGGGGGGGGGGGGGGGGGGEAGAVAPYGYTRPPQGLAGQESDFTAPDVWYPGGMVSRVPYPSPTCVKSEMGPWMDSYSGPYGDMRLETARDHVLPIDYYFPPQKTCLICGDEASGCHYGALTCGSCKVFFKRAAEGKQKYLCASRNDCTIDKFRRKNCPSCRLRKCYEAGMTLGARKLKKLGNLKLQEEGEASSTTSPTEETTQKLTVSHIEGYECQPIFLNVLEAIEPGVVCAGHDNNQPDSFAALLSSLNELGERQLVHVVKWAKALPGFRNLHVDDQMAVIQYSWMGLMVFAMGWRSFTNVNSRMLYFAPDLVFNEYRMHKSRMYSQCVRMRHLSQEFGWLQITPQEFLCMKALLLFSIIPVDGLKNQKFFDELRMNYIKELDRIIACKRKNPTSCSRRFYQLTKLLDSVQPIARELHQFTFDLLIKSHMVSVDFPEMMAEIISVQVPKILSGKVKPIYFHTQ
Assay: VCAP AR Degradation Assay (AR ELISA, 24 h)
Assay type: cell-based
Conditions: for Y (lowest measured AR level normalized to DMSO control): AR degradation efficiency; for DC50: concentration of compound when AR level = 50% of DMSO control
Procedure: VCAP AR Degradation Assay.
Test compounds were pre-dispensed into a Corning CellBind 96-well clear bottom plate (Cat #3300) using an acoustic dispenser to make a 10-point concentration series at 1:3 dilution for each compound. The final top concentration of each compound was […]. DMSO at a final concentration of 0.1% was used as a control. VCaP cells cultured in DMEM with 8% fetal bovine serum (FBS) were seeded at 50K cells per well in a 200 μL volume into the compound plate and incubated at 37° C. in a CO2 incubator for 24 h. The medium was carefully removed from the cells and the plate was placed on ice. One hundred […] of ice-cold 1× cell lysis buffer from Cell Signaling Technologies (Cat #9803) was added to each well of the cells and the plate was incubated at 4° C. on a shaker for 1 h. Fifteen […] of cell lysate was used for AR ELISA detection using a PathScan Total Sandwich AR ELISA kit (Cell Signaling Technology, Cat #12580). AR levels in compound-treated wells were normalized to that of DMSO control and expressed as percent of control (PoC) (y). A Four Parameter Logistic Model (Sigmoidal Dose-Response Model) was used to determine the compound's DC50, and EC50, using the following equation: y=(A+((B−A)/(1+((C/x)^D)))) • A=YMin (lowest AR level normalized to DMSO control in response to compound • treatment, as determined by curve fit) • B=YMax (maximum AR level as determined by curve fit) • C=EC50 • D=Hill Slope • x=compound concentration • EC50=the concentration of compound when y=(YMax−YMin)/2 • DC50=the concentration of the compound when y=50% of DMSO control (50% AR degradation) • y=AR protein level normalized to DMSO control
The lowest measured AR level normalized to DMSO control in response to compound treatment, termed Y value, was used to characterize the compound-mediated AR degradation efficiency.

Row | Structure (SMILES) | Y (lowest measured AR level normalized to DMSO control) | DC50 (read-out: DC50) [nM] | DC50 [nM]
1 | CCc1cc(N2C(=S)N(c3cnc(C#N)c(C(F)(F)F)c3)C(=O)C23CCC3)ccc1OCCC1CCN(CC(=O)Nc2cccc(NC3CCC(=O)NC3=O)c2)C(C)(C)C1 (single isomer, unassigned) [Cmpd 54] | * (0<Y<=25%) | < 100 | 
2 | CCc1cc(N2C(=S)N(c3cnc(C#N)c(C(F)(F)F)c3)C(=O)C23CCC3)ccc1OCC[C@H]1C[C@H]2CC[C@@H](C1)N2CC(=O)Nc1cccc(NC2CCC(=O)NC2=O)c1 (single isomer, unassigned) [Cmpd 67] | ** (25%<Y<=35%) |  | < 100
3 | CC1(C)C(=O)N(c2ccc(C#N)c(C(F)(F)F)c2)C(=S)N1c1ccc(OC2CCN(CC(=O)Nc3cccc(NC4CCC(=O)NC4=O)c3)CC2)c(F)c1 (stereo not shown) [Cmpd 1, 2-(4-(4-(3-(4-cyano-3-(trifluoromethyl)phenyl)-5,5-dimethyl-4-oxo-2-thioxoimidazolidin-1-yl)-2-fluorophenoxy)piperidin-1-yl)-N-(3-(2,6-dioxopiperidin-3-ylamino)phenyl)acetamide] | ** (25%<Y<=35%) | < 100 | 
4 | CC1(C)C(=O)N(c2ccc(C#N)c(C(F)(F)F)c2)C(=S)N1c1ccc(OCC2CCN(CC(=O)Nc3cccc(NC4CCC(=O)NC4=O)c3)CC2)c(F)c1 (stereo not shown) [Cmpd 2, 2-(4-((4-(3-(4-cyano-3-(trifluoromethyl)phenyl)-5,5-dimethyl-4-oxo-2-thioxoimidazolidin-1-yl)-2-fluorophenoxy)methyl)piperidin-1-yl)-N-(3-(2,6-dioxopiperidin-3-ylamino)phenyl)acetamide] | ** (25%<Y<=35%) | 100 to 500 | 
5 | CC1(C)C(=O)N(c2ccc(C#N)c(C(F)(F)F)c2)C(=S)N1c1ccc(OCCC2CCN(CC(=O)Nc3cccc(NC4CCC(=O)NC4=O)c3)CC2)c(F)c1 (stereo not shown) [Cmpd 3, 2-(4-(2-(4-(3-(4-cyano-3-(trifluoromethyl)phenyl)-5,5-dimethyl-4-oxo-2-thioxoimidazolidin-1-yl)-2-fluorophenoxy)ethyl)piperidin-1-yl)-N-(3-(2,6-dioxopiperidin-3-ylamino)phenyl)acetamide] | ** (25%<Y<=35%) | 100 to 500 | 
6 | CC1(C)C(=O)N(c2ccc(C#N)c(C(F)(F)F)c2)C(=S)N1c1ccc(OCCC2CCN(CC(=O)Nc3cccc(NC4CCC(=O)NC4=O)c3)CC2)c(Cl)c1 (stereo not shown) [Cmpd 4, 2-(4-(2-(2-chloro-4-(3-(4-cyano-3-(trifluoromethyl)phenyl)-5,5-dimethyl-4-oxo-2-thioxoimidazolidin-1-yl)phenoxy)ethyl)piperidin-1-yl)-N-(3-(2,6-dioxopiperidin-3-ylamino)phenyl)acetamide] | ** (25%<Y<=35%) | 100 to 500 | 
7 | CC1(C)C(=O)N(c2cnc(C#N)c(C(F)(F)F)c2)C(=S)N1c1ccc(OCCC2CCN(CC(=O)Nc3cccc(NC4CCC(=O)NC4=O)c3)CC2)c(Cl)c1 (stereo not shown) [Cmpd 5, 2-(4-(2-(2-chloro-4-(3-(6-cyano-5-(trifluoromethyl)pyridin-3-yl)-5,5-dimethyl-4-oxo-2-thioxoimidazolidin-1-yl)phenoxy)ethyl)piperidin-1-yl)-N-(3-(2,6-dioxopiperidin-3-ylamino)phenyl)acetamide] | * (0<Y<=25%) | < 100 | 
8 | CC1(C)C(=O)N(c2cnc(C#N)c(C(F)(F)F)c2)C(=S)N1c1ccc(OCC2CCN(CC(=O)Nc3cccc(NC4CCC(=O)NC4=O)c3)CC2)cc1 (stereo not shown) [Cmpd 6, 2-(4-((4-(3-(6-cyano-5-(trifluoromethyl)pyridin-3-yl)-5,5-dimethyl-4-oxo-2-thioxoimidazolidin-1-yl)phenoxy)methyl)piperidin-1-yl)-N-(3-(2,6-dioxopiperidin-3-ylamino)phenyl)acetamide] | ** (25%<Y<=35%) | 100 to 500 | 
9 | CC1(C)C(=O)N(c2cnc(C#N)c(C(F)(F)F)c2)C(=S)N1c1ccc(OCC2CCN(CC(=O)Nc3cccc(NC4CCC(=O)NC4=O)c3)CC2)c(Cl)c1 (stereo not shown) [Cmpd 7, 2-(4-((2-chloro-4-(3-(6-cyano-5-(trifluoromethyl)pyridin-3-yl)-5,5-dimethyl-4-oxo-2-thioxoimidazolidin-1-yl)phenoxy)methyl)piperidin-1-yl)-N-(3-(2,6-dioxopiperidin-3-ylamino)phenyl)acetamide] | ** (25%<Y<=35%) | 500 to 1000 | 
10 | CC1(C)C(=O)N(c2ccc(C#N)c(C(F)(F)F)c2)C(=S)N1c1ccc(OCCC2CCN(CC(=O)Nc3cc(Cl)cc(NC4CCC(=O)NC4=O)c3)CC2)c(Cl)c1 (stereo not shown) [Cmpd 8, 2-(4-(2-(2-chloro-4-(3-(4-cyano-3-(trifluoromethyl)phenyl)-5,5-dimethyl-4-oxo-2-thioxoimidazolidin-1-yl)phenoxy)ethyl)piperidin-1-yl)-N-(3-chloro-5-(2,6-dioxopiperidin-3-ylamino)phenyl)acetamide] | * (0<Y<=25%) | 100 to 500 | 
11 | CC1(C)C(=O)N(c2ccc(C#N)c(C(F)(F)F)c2)C(=S)N1c1ccc(OCC2CCN(CC(=O)Nc3cc(Cl)cc(NC4CCC(=O)NC4=O)c3)CC2)c(Cl)c1 (stereo not shown) [Cmpd 9, 2-(4-((2-chloro-4-(3-(4-cyano-3-(trifluoromethyl)phenyl)-5,5-dimethyl-4-oxo-2-thioxoimidazolidin-1-yl)phenoxy)methyl)piperidin-1-yl)-N-(3-chloro-5-(2,6-dioxopiperidin-3-ylamino)phenyl)acetamide] | *** (35%<Y<50%) | 500 to 1000 | 
12 | CC1(C)C(=O)N(c2ccc(C#N)c(C(F)(F)F)c2)C(=S)N1c1ccc(OCCC2CCN(CC(=O)Nc3cc(Cl)cc(NC4CCC(=O)NC4=O)c3)CC2)c(F)c1 (stereo not shown) [Cmpd 10, N-(3-chloro-5-(2,6-dioxopiperidin-3-ylamino)phenyl)-2-(4-(2-(4-(3-(4-cyano-3-(trifluoromethyl)phenyl)-5,5-dimethyl-4-oxo-2-thioxoimidazolidin-1-yl)-2-fluorophenoxy)ethyl)piperidin-1-yl)acetamide] | ** (25%<Y<=35%) | 100 to 500 | 
13 | CCc1cc(N2C(=S)N(c3ccc(C#N)c(C(F)(F)F)c3)C(=O)C2(C)C)ccc1OCC1CCN(CC(=O)Nc2cccc(NC3CCC(=O)NC3=O)c2)CC1 (stereo not shown) [Cmpd 11, 2-(4-((4-(3-(4-cyano-3-(trifluoromethyl)phenyl)-5,5-dimethyl-4-oxo-2-thioxoimidazolidin-1-yl)-2-ethylphenoxy)methyl)piperidin-1-yl)-N-(3-(2,6-dioxopiperidin-3-ylamino)phenyl)acetamide] | ** (25%<Y<=35%) | 100 to 500 | 
14 | CCc1cc(N2C(=S)N(c3cnc(C#N)c(C(F)(F)F)c3)C(=O)C2(C)C)ccc1OCCC1CCN(CC(=O)Nc2cccc(NC3CCC(=O)NC3=O)c2)CC1 (stereo not shown) [Cmpd 12, 2-(4-(2-(4-(3-(6-cyano-5-(trifluoromethyl)pyridin-3-yl)-5,5-dimethyl-4-oxo-2-thioxoimidazolidin-1-yl)-2-ethylphenoxy)ethyl)piperidin-1-yl)-N-(3-(2,6-dioxopiperidin-3-ylamino)phenyl)acetamide] | * (0<Y<=25%) | < 100 | 
